In patent publication US12653827B2, “Methods of treating indolent systemic mastocytosis” (Telios Pharma Inc., priority 2024, dated 2026):

Tests used:
[1] = test system: downstream signaling proteins; test: Downstream signaling proteins in antigen-stimulated mast cells (FIG. 20); format: cell-based; details: mast cells stimulated with an antigen
[2] = test system: basophils; test: BAT (CD63) on blood of dosed ISM patients; format: in vivo, human
Protocol: The BAT was conducted as set forth in Santos (2021) Allergy, 76:2420-2432. Blood from six healthy donors was drawn and Compound 128 was added at various concentrations (10 μM, 3.16 μM, 1 μM, 0.3 μM, 0.1 μM, 0.03 μM, or 0 μM). Blood samples were gently rocked at room temperature for 2 hours, 24 hours, or 48 hours. The BAT assay using the Flow Cast Basophil Activation Kit (Buhlmann Diagnostics; Catalog #B-CCR-STCON) was then conducted following manufacturer instructions by (1) stimulating the blood with anti-FcεR stimulation control in stimulation buffer with IL-3 and staining cells for CCR3 and CD63 for 15 minutes at 37° C., (2) lysing red blood cells and fixing cells with Lysing Reagent at room temperature for 10 minutes, (3) washing cells with Wash Buffer, and (4) acquiring data on a flow cytometer. Activated basophils were defined as CCR3+, low side scatter and CD63+. Percent of activated basophils was calculated as number of activated basophils over the total number of basophils. A four-parameter logistic regression was applied to determine the EC50 and EC90. […]
The BAT assay measuring CD63 used the Flow Cast Basophil Activation Kit method and percent activated basophils were calculated as described in Example 1. Percent inhibition of CD63 activation was calculated as (100−(Sample condition−Unstimulated DMSO control)/(Stimulated DMSO control−Unstimulated DMSO control)×100).

[3] = test system: IL-8, MCP-1, MIP-1a, IL-13 and IL-10; test: Antigen-induced cytokine production in ISM-like and healthy mast cell conditions; format: cell-based, human; details: ISM-like mast cells; treated two hours, antigen four hours
Protocol: Human mast cells were derived from bone marrow CD34+ cells from six healthy donors for up to eight weeks by culturing CD34+ cells in StemSpan SFEM II (Stem Cell Technologies) supplemented with stem cell factor (SCF; 100 ng/mL; R&D System), IL-6 (R&D Systems), IL-3 (R&D Systems) and 1% penicillin/streptomycin (P/S; Gibco) for the first 10 days and in StemSpan SFEM II supplemented with SCF and IL-6 and 1% P/S for the remaining time in culture. […] Supernatant was collected and histamine levels were measured using a Histamine ELISA kit (Eagle Biosciences). […] Percent of activated mast cells was calculated as number of activated mast cells over the total number of mast cells.
Human mast cells were differentiated from bone marrow CD34+ cells from two healthy donors, cultured and sensitized in ISM-like and healthy mast cell conditions as set forth in Example 4, treated with Compound 128 for two hours and stimulated with antigen for four hours. Supernatant was collected and cytokine levels were measured using the BD Cytometric Bead Array (CBA) human soluble protein master buffer kit (Becton Dickinson) and BD CBA human soluble protein flex sets for IL-8, MCP-1, MIP-1a, IL-13 and IL-10 (Becton Dickinson). […]

[4] = test system: IL-4; test: Anti-IgE induced IL-4 production from basophils in whole blood; format: cell-based, human; details: whole blood from a healthy donor, treated two hours, anti-IgE six hours
Protocol: Human mast cells lines, ROSA with wildtype KIT and ROSA […] with D816V KIT mutation (ISM-like cells), were licensed from CRNS Innovation and cultured with or without stem cell factor (100 ng/mL), respectively (FIG. 12A). ROSA cells were stimulated with IL-4 (20 ng/mL; R&D Systems) for 18 hours, stained for FcεRIα(Becton Dickinson) for 30 minutes on ice, washed twice with FACS buffer and data was acquired on a flow cytometer. The median fluorescence intensity of FcεRIα was measured. […] Whole blood from a healthy donor was treated with Compound 128 for two hours and the basophils were stimulated with anti-IgE (1 μg/mL; Beckman Coulter) for six hours (FIG. 12B). Plasma was collected and IL-4 levels were measured using the BD CBA human soluble protein master buffer kit and BD CBA human soluble protein flex set for IL-4 (Becton Dickinson). A four-parameter logistic regression analysis was performed on the cytokine levels to determine the EC50 and EC90. […] Therefore, Compound 128 may indirectly effect FcεRI expression by the reduction of IL-4 levels.

[5] = biological target: BTK (Homo sapiens, UniProt Q06187); test: BTK phosphorylation in mast cells (FIG. 19); format: cell-based; set-up: endogenous in cells
Chain of BTK (Q06187 whole entry): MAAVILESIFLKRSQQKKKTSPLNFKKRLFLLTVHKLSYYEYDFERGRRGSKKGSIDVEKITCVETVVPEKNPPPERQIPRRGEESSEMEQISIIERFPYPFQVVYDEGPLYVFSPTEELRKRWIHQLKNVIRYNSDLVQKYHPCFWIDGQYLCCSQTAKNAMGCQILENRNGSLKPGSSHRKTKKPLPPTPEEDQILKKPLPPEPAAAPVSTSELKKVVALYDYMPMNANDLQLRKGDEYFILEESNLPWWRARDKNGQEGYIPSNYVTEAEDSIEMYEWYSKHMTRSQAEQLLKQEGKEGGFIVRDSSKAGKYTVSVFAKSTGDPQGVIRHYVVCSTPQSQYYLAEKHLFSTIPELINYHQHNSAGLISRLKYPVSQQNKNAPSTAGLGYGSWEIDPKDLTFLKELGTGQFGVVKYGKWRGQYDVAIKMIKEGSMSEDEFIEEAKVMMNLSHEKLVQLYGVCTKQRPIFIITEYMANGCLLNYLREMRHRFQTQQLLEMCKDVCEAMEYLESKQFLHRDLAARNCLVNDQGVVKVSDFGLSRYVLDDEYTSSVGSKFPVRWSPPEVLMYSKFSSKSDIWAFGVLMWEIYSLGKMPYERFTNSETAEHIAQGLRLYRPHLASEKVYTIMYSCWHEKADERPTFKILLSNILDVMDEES

SMILES: C=CC(=O)N1CCC(F)(CNc2ncnc(N)c2-c2ccc(Oc3ccccc3)cc2)CC1 [Compound 128, 1-(4-(((6-amino-5-(4-phenoxyphenyl)pyrimidin-4-yl)amino)methyl)-4-fluoropiperidin-1-yl)prop-2-en-1-one]
- activation of multiple downstream signaling proteins [1]: can be inhibited
- inhibition of basophil activation ([2]; ISM patients, 100 mg or 150 mg BID): effective in inhibiting basophil activation
- percent inhibition of CD63 activation of basophils, dose dependence ([2]; ISM patients, 50, 75, 100 or 150 mg BID): greater inhibition of basophil activation is achieved in ISM patients with greater dosing
- IgE-mediated cytokine production [3]: inhibited
- IgE-mediated IL-4 production [4]: potently inhibited
- potency in inhibiting BTK phosphorylation in mast cells [5]: high potency
